Measured values as given in ChEMBL document CHEMBL1201862, “PubChem BioAssay data set” (2004).
Activity calls are given as the source filed them.

Key:
[1] = biological target: T1, Fatty acid synthase (Homo sapiens, UniProt P49327); assay: FAS thioesterase domain inhibitors, dose response, biochemical, endpoint fluorescence intensity, uHTS hits (AID 624327); format: functional;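 further: fluorescence from hydrolysis of an O-methyl fluorescein acyl ester substrate by the enzyme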
[2] = biological target: T1, Fatty acid synthase; assay: FAS thioesterase domain inhibitors, dose response, biochemical, kinetic fluorescence intensity (AID 624326); format: functional;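 further: rate of fluorescence rise from hydrolysis of a fluorogenic O-methyl fluorescein ester substrate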
[3] = microbe, parasite or virus in culture; format: functional; settings: Mycobacterium tuberculosis
[4] = biological target: T2, Apoptotic protease-activating factor 1 (Homo sapiens, UniProt O14727); format: functional
T2 sequence (O14727 whole entry): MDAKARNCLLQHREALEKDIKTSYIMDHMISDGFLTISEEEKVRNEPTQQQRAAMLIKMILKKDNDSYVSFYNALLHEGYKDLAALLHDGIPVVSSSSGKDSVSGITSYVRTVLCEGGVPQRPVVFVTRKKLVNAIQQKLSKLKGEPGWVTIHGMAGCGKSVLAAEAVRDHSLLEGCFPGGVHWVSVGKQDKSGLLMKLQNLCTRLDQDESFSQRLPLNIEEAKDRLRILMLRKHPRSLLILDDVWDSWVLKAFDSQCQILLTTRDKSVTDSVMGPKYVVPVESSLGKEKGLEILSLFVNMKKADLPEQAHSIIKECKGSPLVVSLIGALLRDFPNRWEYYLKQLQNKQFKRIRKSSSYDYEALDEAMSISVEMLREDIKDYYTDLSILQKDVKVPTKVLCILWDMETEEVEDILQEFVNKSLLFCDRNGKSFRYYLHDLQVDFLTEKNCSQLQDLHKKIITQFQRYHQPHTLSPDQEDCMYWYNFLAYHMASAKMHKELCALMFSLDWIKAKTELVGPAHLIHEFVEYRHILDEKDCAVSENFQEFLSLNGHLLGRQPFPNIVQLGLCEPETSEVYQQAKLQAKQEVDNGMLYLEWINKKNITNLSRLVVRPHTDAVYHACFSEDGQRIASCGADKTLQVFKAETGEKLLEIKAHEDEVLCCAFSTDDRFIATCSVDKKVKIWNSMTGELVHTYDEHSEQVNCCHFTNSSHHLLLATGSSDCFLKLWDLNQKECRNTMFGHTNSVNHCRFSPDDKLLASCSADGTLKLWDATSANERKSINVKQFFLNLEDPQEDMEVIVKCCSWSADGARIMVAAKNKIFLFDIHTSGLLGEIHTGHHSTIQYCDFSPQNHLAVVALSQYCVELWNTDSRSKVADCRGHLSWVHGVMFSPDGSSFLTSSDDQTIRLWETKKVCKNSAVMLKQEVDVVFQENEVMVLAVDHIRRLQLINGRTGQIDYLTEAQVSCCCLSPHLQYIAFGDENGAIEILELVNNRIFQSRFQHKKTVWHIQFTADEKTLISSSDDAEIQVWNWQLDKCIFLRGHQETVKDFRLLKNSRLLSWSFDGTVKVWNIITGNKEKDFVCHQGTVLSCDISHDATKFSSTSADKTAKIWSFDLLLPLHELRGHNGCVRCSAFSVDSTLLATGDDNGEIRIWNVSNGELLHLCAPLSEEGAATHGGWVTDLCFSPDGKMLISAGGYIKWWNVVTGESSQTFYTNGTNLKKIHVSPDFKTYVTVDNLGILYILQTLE

[5] = inhibitors of firefly luciferase expression or activity, dose response, H4 neuroglioma cells, luminescence (AID 1990); format: functional, cell-based
[6] = Luminescence Cell-Based Dose Response HTS to Identify Inhibitors of 5'UTR Stem-Loop Driven Prion Protein mRNA Translation in H4 Neuroglioblastoma Cells. [Related pubchem assays: 1827 (Project Summary), 1813 (Primary HTS)]; format: functional
[7] = inhibitors of SNCA 5'UTR-driven reporter translation, confirmation, H4 neuroglioma cells, luminescence (AID 1988); format: functional, cell-based
[8] = Luminescence Cell-Based Dose Retest to Confirm Inhibitors of Cancer Stem Cells. [Related pubchem assays (depositor defined):AID2717, AID2721]; format: functional; settings: Homo sapiens
[9] = biological target: T3, Ubiquitin-conjugating enzyme E2 N (Homo sapiens, UniProt P61088); format: functional;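 further: Dose-response confirmation in a TR-FRET assay detecting UBC13-driven polyubiquitin chain formation, inhibition measured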
T3 sequence (P61088 whole entry): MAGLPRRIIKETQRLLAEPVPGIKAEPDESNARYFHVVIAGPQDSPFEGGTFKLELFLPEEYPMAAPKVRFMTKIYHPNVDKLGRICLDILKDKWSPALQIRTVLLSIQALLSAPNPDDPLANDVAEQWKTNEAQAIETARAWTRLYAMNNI

[10] = growth suppression of PTEN-null colon cells, dose response, cell-based, HCT116 PTEN knockout (AID 1047); format: functional;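 further: HCT116 colon tumor cells with PTEN knocked out; cells exposed to compound for 60 hours before readout; potency for loss of cell viability measured by luminescence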
[11] = growth suppression of beta-catenin-knockout colon cells, dose response, cell-based, HCT116, human colon tumor (AID 1045); format: functional;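 further: HCT116 colon tumor cells with beta catenin knocked out; cells exposed to compound for 60 hours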
[12] = biological target: Heat shock protein HSP 90-alpha (Homo sapiens, UniProt P07900); format: functional, organism-based
[13] = system: INS1; assay: beta cell apoptosis inhibitors, cytokine rescue, dose response, luminescence, retest (AID 449756); format: functional, cell-based; settings: Rattus norvegicus;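 further: cell death triggered by IL-1 beta plus TNF-alpha plus IFN-gamma mixture; protective hits raise ATP signal compared with cytokine alone wells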
[14] = biological target: T4, RNA-binding protein pos-1 (Caenorhabditis elegans, UniProt G5EF15); assay: inhibitors of POS-1/mex-3 RNA binding, dose response, biochemical, fluorescence polarization (AID 1964);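 further: purified POS-1 fused to maltose binding protein made in E. coli; potency of compounds blocking POS-1 binding to fluorescent RNA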
T4 sequence (G5EF15 whole entry): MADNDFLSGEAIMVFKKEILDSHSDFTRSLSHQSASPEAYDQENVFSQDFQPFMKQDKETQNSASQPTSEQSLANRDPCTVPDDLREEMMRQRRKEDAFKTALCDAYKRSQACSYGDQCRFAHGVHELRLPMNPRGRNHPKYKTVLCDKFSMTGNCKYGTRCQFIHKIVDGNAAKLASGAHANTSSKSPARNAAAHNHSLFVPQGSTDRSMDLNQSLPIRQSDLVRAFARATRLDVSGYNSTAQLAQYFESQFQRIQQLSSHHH

[15] = biological target: T5, Zinc finger protein mex-5 (Caenorhabditis elegans, UniProt Q9XUB2); assay: MEX-5/TCR-2 RNA interaction inhibitors, dose response, biochemical, C. elegans, fluorescence polarization (AID 1960)
T5 sequence (Q9XUB2 whole entry): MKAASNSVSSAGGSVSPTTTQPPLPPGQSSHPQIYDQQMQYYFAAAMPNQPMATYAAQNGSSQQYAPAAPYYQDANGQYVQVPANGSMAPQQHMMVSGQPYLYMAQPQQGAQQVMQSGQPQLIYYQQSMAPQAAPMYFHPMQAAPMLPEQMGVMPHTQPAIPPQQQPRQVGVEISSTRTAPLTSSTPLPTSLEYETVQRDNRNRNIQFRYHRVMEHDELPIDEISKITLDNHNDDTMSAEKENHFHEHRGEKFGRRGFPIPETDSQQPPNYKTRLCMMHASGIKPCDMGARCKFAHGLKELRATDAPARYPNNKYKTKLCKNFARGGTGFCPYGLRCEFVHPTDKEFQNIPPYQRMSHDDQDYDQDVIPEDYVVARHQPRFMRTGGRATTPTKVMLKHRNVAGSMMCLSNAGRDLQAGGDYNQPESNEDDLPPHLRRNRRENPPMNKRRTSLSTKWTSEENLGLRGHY

[16] = biological target: T6, Endoribonuclease toxin MazF (Escherichia coli K-12, UniProt P0AE70); assay: MazF toxin RNase activators, dose response, biochemical, fluorescence, single-stranded RNA substrate, uHTS hits (AID 588481); format: functional
T6 sequence (P0AE70 whole entry): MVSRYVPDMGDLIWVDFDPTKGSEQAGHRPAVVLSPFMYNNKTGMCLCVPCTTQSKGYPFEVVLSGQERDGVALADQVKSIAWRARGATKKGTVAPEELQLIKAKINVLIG

[17] = biological target: T6, Endoribonuclease toxin MazF; assay: fluorescent RNA oligo signal without MazF, dose response, counter-screen for MazEF activator project, biochemical, fluorescence, single-stranded RNase substrate (AID 588502); format: functional
[18] = biological target: T7, Corticotropin-releasing factor receptor 2/Corticotropin-releasing factor-binding protein (Homo sapiens, UniProt P24387+Q13324); assay: activators of CRF receptor 2 with binding protein – uHTS hits, confirmation (AID 602473); format: functional; settings: read-out: EC50_Mean
T7 sequence (Q13324 whole entry): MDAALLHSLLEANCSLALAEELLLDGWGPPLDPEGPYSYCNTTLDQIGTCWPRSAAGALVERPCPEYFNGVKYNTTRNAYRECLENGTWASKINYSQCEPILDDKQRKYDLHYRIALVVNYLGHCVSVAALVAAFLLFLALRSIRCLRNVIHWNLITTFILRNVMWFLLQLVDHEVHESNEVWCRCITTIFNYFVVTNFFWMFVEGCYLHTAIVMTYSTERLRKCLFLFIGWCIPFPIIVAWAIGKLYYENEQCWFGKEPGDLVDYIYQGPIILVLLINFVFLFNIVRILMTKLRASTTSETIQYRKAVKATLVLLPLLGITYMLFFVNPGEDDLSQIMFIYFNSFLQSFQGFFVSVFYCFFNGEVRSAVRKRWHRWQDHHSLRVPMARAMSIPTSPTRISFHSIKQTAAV
T7 sequence (P24387 whole entry): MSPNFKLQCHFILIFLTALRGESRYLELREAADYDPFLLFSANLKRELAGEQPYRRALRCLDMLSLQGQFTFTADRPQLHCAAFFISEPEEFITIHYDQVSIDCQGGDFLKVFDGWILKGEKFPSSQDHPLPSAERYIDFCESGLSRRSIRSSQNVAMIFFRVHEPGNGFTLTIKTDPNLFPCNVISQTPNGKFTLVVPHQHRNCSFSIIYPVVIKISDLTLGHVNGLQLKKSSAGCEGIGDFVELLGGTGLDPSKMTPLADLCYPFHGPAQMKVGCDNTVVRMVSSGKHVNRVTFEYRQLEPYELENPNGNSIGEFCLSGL

[19] = biological target: Paired box protein Pax-8 (Homo sapiens, UniProt Q06710); assay: inhibitors of PAX8-driven TPO luciferase reporter, dose response, RMG-I cells, cherry-pick (AID 687027); format: functional, cell-based;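 further: luciferase reporter driven by Pax8 target thyroperoxidase promoter measured by SteadyGlo luminescence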
Chain of Paired box protein Pax-8 (Q06710 whole entry): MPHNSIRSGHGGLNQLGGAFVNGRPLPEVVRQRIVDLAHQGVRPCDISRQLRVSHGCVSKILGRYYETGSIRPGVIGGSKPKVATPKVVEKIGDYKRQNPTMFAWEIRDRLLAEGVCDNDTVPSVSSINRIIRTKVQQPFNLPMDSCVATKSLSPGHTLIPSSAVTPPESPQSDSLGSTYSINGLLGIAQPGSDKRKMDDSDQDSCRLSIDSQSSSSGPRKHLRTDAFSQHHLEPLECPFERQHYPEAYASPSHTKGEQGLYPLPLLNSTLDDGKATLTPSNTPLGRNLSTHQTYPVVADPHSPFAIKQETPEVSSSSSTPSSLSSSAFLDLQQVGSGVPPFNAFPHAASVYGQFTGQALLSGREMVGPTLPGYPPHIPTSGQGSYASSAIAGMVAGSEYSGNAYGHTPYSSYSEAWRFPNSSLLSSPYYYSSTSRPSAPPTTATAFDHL

[20] = LGR2 antagonists, dose response, cell-based, HEK293, CRE-luciferase reporter, cherry pick, set 2 (AID 743343); format: functional;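 further: transfected cells were stimulated with diluted bursicon conditioned medium after compound addition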
[21] = non-specific cell cytotoxicity, dose response, cytotoxicity control for PAX8 inhibitor project, plate reader, dry powder samples (AID 743021); format: functional, cell-based
[22] = MC4R antagonists, dose response, counter-screen for LGR2 antagonist project, cell-based, plate reader, cherry pick (AID 743444); format: functional;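 further: transfected HEK 293 cells stimulated with alpha-MSH peptide; potency of inhibitors of the alpha-MSH evoked signal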

T1 sequence (P49327 whole entry, the tested form may be a part): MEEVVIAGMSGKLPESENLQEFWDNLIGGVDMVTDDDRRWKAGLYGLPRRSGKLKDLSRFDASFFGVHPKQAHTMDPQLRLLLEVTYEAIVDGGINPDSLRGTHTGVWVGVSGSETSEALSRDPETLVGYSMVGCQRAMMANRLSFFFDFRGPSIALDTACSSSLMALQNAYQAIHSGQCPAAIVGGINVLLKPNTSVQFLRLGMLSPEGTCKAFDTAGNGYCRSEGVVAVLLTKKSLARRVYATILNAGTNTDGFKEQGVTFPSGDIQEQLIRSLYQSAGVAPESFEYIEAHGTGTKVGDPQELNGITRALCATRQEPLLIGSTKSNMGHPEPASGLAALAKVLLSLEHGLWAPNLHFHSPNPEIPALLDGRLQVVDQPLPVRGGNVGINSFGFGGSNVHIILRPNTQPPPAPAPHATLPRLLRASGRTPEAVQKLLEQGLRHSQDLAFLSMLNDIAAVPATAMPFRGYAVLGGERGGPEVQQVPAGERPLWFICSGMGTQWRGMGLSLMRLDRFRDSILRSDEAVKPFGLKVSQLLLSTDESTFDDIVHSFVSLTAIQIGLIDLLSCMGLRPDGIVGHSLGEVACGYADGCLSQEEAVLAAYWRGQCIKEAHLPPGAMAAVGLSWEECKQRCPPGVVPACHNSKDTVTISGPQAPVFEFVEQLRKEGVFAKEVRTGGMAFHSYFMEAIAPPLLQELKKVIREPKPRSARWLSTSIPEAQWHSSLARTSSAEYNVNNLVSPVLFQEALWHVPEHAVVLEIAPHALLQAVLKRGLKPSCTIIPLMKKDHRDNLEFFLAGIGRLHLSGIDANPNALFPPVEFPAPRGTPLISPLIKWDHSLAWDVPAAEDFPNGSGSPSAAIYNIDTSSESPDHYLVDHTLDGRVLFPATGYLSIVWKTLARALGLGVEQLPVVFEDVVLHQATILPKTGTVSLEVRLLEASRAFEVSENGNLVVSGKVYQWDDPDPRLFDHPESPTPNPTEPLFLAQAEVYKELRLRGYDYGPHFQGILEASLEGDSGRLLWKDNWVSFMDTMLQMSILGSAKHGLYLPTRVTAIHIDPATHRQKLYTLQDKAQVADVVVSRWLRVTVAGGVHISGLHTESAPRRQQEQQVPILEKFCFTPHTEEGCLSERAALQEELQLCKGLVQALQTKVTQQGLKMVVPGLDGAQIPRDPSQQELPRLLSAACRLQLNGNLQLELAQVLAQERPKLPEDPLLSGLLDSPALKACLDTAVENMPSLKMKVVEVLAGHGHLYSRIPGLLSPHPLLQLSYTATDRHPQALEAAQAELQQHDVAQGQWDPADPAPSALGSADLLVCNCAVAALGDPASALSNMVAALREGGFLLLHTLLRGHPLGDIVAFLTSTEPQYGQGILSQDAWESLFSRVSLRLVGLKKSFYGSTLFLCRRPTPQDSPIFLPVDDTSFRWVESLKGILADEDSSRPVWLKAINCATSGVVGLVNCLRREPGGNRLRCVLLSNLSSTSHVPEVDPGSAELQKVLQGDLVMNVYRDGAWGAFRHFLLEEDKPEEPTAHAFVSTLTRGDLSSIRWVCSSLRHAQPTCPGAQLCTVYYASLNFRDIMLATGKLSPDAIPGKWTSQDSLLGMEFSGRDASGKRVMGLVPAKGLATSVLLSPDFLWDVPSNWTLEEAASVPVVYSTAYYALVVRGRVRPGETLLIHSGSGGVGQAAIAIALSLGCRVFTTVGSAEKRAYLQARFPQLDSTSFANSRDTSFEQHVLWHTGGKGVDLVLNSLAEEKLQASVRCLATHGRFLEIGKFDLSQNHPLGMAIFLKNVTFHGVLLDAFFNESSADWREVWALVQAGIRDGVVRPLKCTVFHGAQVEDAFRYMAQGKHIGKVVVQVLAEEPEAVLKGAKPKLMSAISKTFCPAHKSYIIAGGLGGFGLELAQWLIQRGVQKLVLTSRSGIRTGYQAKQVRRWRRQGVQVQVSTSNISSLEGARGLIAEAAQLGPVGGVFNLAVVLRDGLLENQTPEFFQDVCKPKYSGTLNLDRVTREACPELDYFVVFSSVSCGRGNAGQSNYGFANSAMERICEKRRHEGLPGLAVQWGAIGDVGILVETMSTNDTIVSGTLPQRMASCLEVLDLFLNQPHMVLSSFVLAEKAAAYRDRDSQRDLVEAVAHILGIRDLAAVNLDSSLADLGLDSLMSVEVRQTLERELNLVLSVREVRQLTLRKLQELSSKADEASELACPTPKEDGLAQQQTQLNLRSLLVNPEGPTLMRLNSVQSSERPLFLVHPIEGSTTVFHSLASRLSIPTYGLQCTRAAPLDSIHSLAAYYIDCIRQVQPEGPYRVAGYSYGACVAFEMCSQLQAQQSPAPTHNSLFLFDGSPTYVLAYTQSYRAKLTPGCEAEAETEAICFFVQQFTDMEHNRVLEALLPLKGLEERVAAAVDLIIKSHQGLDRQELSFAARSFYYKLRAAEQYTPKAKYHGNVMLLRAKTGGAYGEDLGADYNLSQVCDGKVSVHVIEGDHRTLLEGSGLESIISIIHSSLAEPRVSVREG

With `CC(C)(C)OC(=O)CNC(=O)c1[nH]cnc1C(=O)N[C@@H](CCCCNC(=O)OC(C)(C)C)C(=O)OC(C)(C)C` the IC50 [1] was 0.517 µM (active) and the IC50 [2] was 0.364 µM (active).
For `O=C(CN1CCN(C(=O)COc2cccc(F)c2)CC1)Nc1ccc(Cl)c(C(F)(F)F)c1`, the CC50 [3] was > 40 µM (active).
With `O=C(OCC(=O)N1CCc2ccccc2C1)c1ccc(Cl)c([N+](=O)[O-])c1` the IC50 [1] was 5.45 µM (active) and the IC50 [2] was 2.41 µM (active).
For `CCCCOc1ccc(C(=O)NCC(=O)NCC(c2cccs2)N2CCOCC2)cc1` (stereo not given), the IC50 [4] was > 100 µM (inactive).
In the case of `O=C(CCn1c2c(c3ccccc31)CCCC2)NNC(=O)c1ccc(Cl)c([N+](=O)[O-])c1`, the IC50 [4] is reported as 0.798 µM (active).
In the case of `CCN1CCN(Cc2ccc(NC(=O)c3cc(NC(=O)c4cncc(-c5cccs5)c4)cc(OC)c3)cc2C(F)(F)F)CC1`, the EC50 [5] is reported as > 120 µM (not active), the EC50 [6] is reported as 8.93 µM (active) and the EC50 [7] is reported as > 120 µM (not active). The CC50 [3] was 8.62 µM (active), the AC50 [8] was 7.38 µM (active) and the IC50 [9] was > 20 µM (inactive).
In the case of `CC(C)(C)c1ccc(OCCC(=O)OCC(=O)NCc2ccccc2)cc1`, the IC50 [1] is reported as 6.55 µM (active) and the IC50 [2] is reported as 6.7 µM (active).
With `Cn1c(SCC(=O)N/N=C/c2ccc([N+](=O)[O-])s2)nnc1-c1ccc(Cl)cc1` the EC50 [10] was 4.91 µM (active), the EC50 [11] was 4.82 µM (active) and the AC50 [12] was 2.55 µM (active). For the same molecule, the AC50 [13] was 9.33 µM (active).
With `COC(=O)Cn1cc(/C=C2\C(=O)NC(=O)N(c3ccc(OC)cc3)C2=O)c2ccccc21` the EC50 [14] was 69.1 µM (active), the EC50 [15] was 6.99 µM (active) and the EC50 [16] was > 99 µM (inactive). The EC50 [17] was 71.4 µM (inactive) and the EC50 [18] was 5.57 µM (active).
For `Cc1ccc2nc(-c3ccc(Br)cc3)cn2c1`, the AC50 [19] was 11.2 µM (active), the AC50 [20] was 0.662 µM (active) and the AC50 [21] was 24.6 µM (active). The AC50 [22] was 0.704 µM (active).
For `Cc1cc(Br)ccc1NC(=O)C(C)c1ccc([N+](=O)[O-])cc1` (stereo not given), the IC50 [1] was 31.9 µM (inactive) and the IC50 [2] was 18.8 µM (active).
